For 14 molecules, T/C results are on record in PubChem BioAssay AID256 (DTP/NCI, 2004).

Several values for one entry are separate records, joined by “and”; a condition that tells them apart may be missing. Equal entries are not always repeated. Inconclusive results and toxic doses are left out.

The subject of the experiment is CD2F1 mice, L1210 leukemia ip, survival T/C. In words: NCI In Vivo Anticancer Drug Screen. Data for tumor model L1210 Leukemia (intraperitoneal) in CD2F1 (CDF1) mice. The following applies: higher = longer survival. The gist of the method:
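Read-out first: treated-group measurement over vehicle-control measurement, expressed as a ratio. Animals bore a transplanted tumor line and were dosed with compound or vehicle.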

Setting [1] is: endpoint: mean survival time, dose: 100.0 mg/kg/injection, schedule: Q01DX009 (ip), vehicle: saline with Tween-80.
Setting [2] is: endpoint: mean survival time, dose: 100.0 mg/kg/injection, schedule: Q04DX003 (ip), vehicle: saline with Tween-80.
Setting [3] is: endpoint: mean survival time, dose: 200.0 mg/kg/injection, schedule: Q01DX009 (ip), vehicle: saline with Tween-80.
[4] abbreviates: endpoint: mean survival time, dose: 200.0 mg/kg/injection, schedule: Q04DX003 (ip), vehicle: saline with Tween-80.
Where [5] appears, read: endpoint: mean survival time, dose: 400.0 mg/kg/injection, schedule: Q01DX009 (ip), vehicle: saline with Tween-80.
The mark [6] stands for this setting: endpoint: mean survival time, dose: 400.0 mg/kg/injection, schedule: Q04DX003 (ip), vehicle: saline with Tween-80.

With `COc1ccc(OC)c(NC(=O)Nc2cc([N+](=O)[O-])ccc2Cl)c1`, the T/C was 91 % of control (endpoint: mean survival time, dose: 100.0 mg/kg/injection, schedule: Q01DX001 (ip), vehicle: saline with Tween-80); 93 % of control and 95 % of control under setting [1]; 92 % of control and 95 % of control (endpoint: mean survival time, dose: 100.0 mg/kg/injection, schedule: Q04DX002 (ip), vehicle: saline with Tween-80); 101 % of control under setting [2]; 88 % of control (endpoint: mean survival time, dose: 200.0 mg/kg/injection, schedule: Q01DX001 (ip), vehicle: saline with Tween-80); 115 % of control and 98 % of control under setting [3]. The T/C is 91 % of control and 96 % of control (endpoint: mean survival time, dose: 200.0 mg/kg/injection, schedule: Q04DX002 (ip), vehicle: saline with Tween-80); 96 % of control under setting [4]; 100 % of control and 101 % of control under setting [5]; 96 % of control and 104 % of control (endpoint: mean survival time, dose: 400.0 mg/kg/injection, schedule: Q04DX002 (ip), vehicle: saline with Tween-80); 96 % of control under setting [6].

As for `C/C=N\N=C(N)N`, the T/C is 96 % of control (endpoint: mean survival time, dose: 30.0 mg/kg/injection, schedule: Q01DX010 (ip), vehicle: saline); 96 % of control (endpoint: mean survival time, dose: 60.0 mg/kg/injection, schedule: Q01DX009 (ip), vehicle: saline); 91 % of control (endpoint: mean survival time, dose: 120.0 mg/kg/injection, schedule: Q01DX010 (ip), vehicle: saline); 93 % of control (endpoint: mean survival time, dose: 240.0 mg/kg/injection, schedule: Q01DX009 (ip), vehicle: saline); 93 % of control (endpoint: mean survival time, dose: 480.0 mg/kg/injection, schedule: Q01DX009 (ip), vehicle: saline).

`CC(=O)OC1(C)CC(C)(C)N=[N+]1[O-]` (stereo not given): the T/C is 96 % of control (endpoint: mean survival time, dose: 25.0 mg/kg/injection, schedule: Q01DX009 (ip), vehicle: Klucel (hydroxypropylcellulose) (HPC)); 101 % of control (endpoint: mean survival time, dose: 50.0 mg/kg/injection, schedule: Q01DX009 (ip), vehicle: Klucel (hydroxypropylcellulose) (HPC)); 101 % of control (endpoint: mean survival time, dose: 100.0 mg/kg/injection, schedule: Q01DX009 (ip), vehicle: Klucel (hydroxypropylcellulose) (HPC)); 105 % of control (endpoint: mean survival time, dose: 200.0 mg/kg/injection, schedule: Q01DX009 (ip), vehicle: Klucel (hydroxypropylcellulose) (HPC)).

For `O=C(O)c1cccc(C(=O)O)c1C(=O)O.[NH-]C1CCCCC1[NH-].[Pt+2]`, the T/C was 102 % of control and 109 % of control (endpoint: median survival time, dose: 3.12 mg/kg/injection, schedule: Q04DX003 (ip), vehicle: saline); 114 % of control and 103 % of control (endpoint: median survival time, dose: 6.25 mg/kg/injection, schedule: Q04DX003 (ip), vehicle: saline); 115 % of control and 108 % of control (endpoint: median survival time, dose: 12.5 mg/kg/injection, schedule: Q04DX003 (ip), vehicle: saline); 117 % of control (endpoint: median survival time, dose: 25.0 mg/kg/injection, schedule: Q04DX003 (ip), vehicle: saline); 152 % of control (endpoint: median survival time, dose: 50.0 mg/kg/injection, schedule: Q04DX003 (ip), vehicle: saline); 178 % of control and 197 % of control (endpoint: median survival time, dose: 100.0 mg/kg/injection, schedule: Q04DX003 (ip), vehicle: saline). The T/C (endpoint: median survival time, dose: 200.0 mg/kg/injection, schedule: Q04DX003 (ip), vehicle: saline) was 282 % of control and 375 % of control.

With `O=C(Cl)CCc1ccnc2ccccc12`, the T/C reads like this: (endpoint: mean survival time, dose: 100.0 mg/kg/injection, schedule: Q04DX003 (ip), vehicle: saline) 95 % of control; (endpoint: mean survival time, dose: 200.0 mg/kg/injection, schedule: Q04DX003 (ip), vehicle: saline) 101 % of control; (endpoint: mean survival time, dose: 400.0 mg/kg/injection, schedule: Q04DX003 (ip), vehicle: saline) 113 % of control.

Regarding `CC(=O)C(C(=O)Nc1ccccc1)c1cc(NS(=O)(=O)c2ccccc2)ccc1O` (stereo not given), the T/C by setting is: under setting [2], 102 % of control; under setting [4], 96 % of control; under setting [6], 91 % of control.

Take `OCC1OC(n2ncc3c2ncn2ncnc32)C(O)C1O` (stereo not given): the T/C (endpoint: mean survival time, dose: 12.5 mg/kg/injection, schedule: Q01DX005 (ip), vehicle: water) is 90 % of control; the T/C (endpoint: mean survival time, dose: 25.0 mg/kg/injection, schedule: Q01DX005 (ip), vehicle: water) is 94 % of control; the T/C (endpoint: mean survival time, dose: 50.0 mg/kg/injection, schedule: Q01DX005 (ip), vehicle: water) was 101 % of control; the T/C (endpoint: mean survival time, dose: 100.0 mg/kg/injection, schedule: Q01DX005 (ip), vehicle: water) is 100 % of control; the T/C (endpoint: mean survival time, dose: 200.0 mg/kg/injection, schedule: Q01DX005 (ip), vehicle: water) was 113 % of control.

For `COc1ccc([I+]c2cccc(Cl)c2)cc1Cl`, the T/C by setting is: (endpoint: mean survival time, dose: 0.37 mg/kg/injection, schedule: Q01DX009 (ip), vehicle: saline with Tween-80) 97 % of control; (endpoint: mean survival time, dose: 0.75 mg/kg/injection, schedule: Q01DX009 (ip), vehicle: saline with Tween-80) 107 % of control; (endpoint: mean survival time, dose: 1.5 mg/kg/injection, schedule: Q01DX009 (ip), vehicle: saline with Tween-80) 98 % of control; (endpoint: mean survival time, dose: 3.0 mg/kg/injection, schedule: Q01DX009 (ip), vehicle: saline with Tween-80) 110 % of control; (endpoint: mean survival time, dose: 6.0 mg/kg/injection, schedule: Q01DX009 (ip), vehicle: saline with Tween-80) 107 % of control; (endpoint: mean survival time, dose: 12.0 mg/kg/injection, schedule: Q01DX009 (ip), vehicle: saline with Tween-80) 109 % of control. Moreover, the T/C was 116 % of control (endpoint: median survival time, dose: 12.5 mg/kg/injection, schedule: Q01DX009 (ip), vehicle: saline with Tween-80) and 116 % of control (endpoint: median survival time, dose: 25.0 mg/kg/injection, schedule: Q01DX009 (ip), vehicle: saline with Tween-80).

Consider `CC(C)NC(=O)CCCCN(C(=O)OCc1ccccc1)N(C)C(=O)OCc1ccccc1`, for which the T/C (endpoint: mean survival time, dose: 50.0 mg/kg/injection, schedule: Q04DX003 (ip), vehicle: Klucel (hydroxypropylcellulose) (HPC)) was 100 % of control; the T/C (endpoint: mean survival time, dose: 100.0 mg/kg/injection, schedule: Q04DX003 (ip), vehicle: Klucel (hydroxypropylcellulose) (HPC)) was 91 % of control; the T/C (endpoint: mean survival time, dose: 200.0 mg/kg/injection, schedule: Q04DX003 (ip), vehicle: Klucel (hydroxypropylcellulose) (HPC)) is 106 % of control; the T/C (endpoint: mean survival time, dose: 400.0 mg/kg/injection, schedule: Q04DX003 (ip), vehicle: Klucel (hydroxypropylcellulose) (HPC)) is 95 % of control.

Turning to `COc1cc2c(cc1O)CCCC=C2C1CCCCc2cc(O)c(OC)cc21` (stereo not given), the T/C is, setting by setting: (endpoint: mean survival time, dose: 50.0 mg/kg/injection, schedule: Q01DX009 (ip), vehicle: saline with Tween-80) 96 % of control; under setting [1], 103 % of control; under setting [3], 96 % of control.

As for `O=C(c1ccc(-c2ccccc2)cc1)C1C(c2ccccc2)N1C1CCCCC1` (stereo not given), the T/C is, setting by setting: (endpoint: mean survival time, dose: 12.5 mg/kg/injection, schedule: Q01DX009 (ip), vehicle: other) 102 % of control and 96 % of control; (endpoint: mean survival time, dose: 25.0 mg/kg/injection, schedule: Q01DX001 (ip), vehicle: water) 96 % of control and 98 % of control; (endpoint: mean survival time, dose: 25.0 mg/kg/injection, schedule: Q01DX009 (ip), vehicle: other) 96 % of control and 97 % of control; (endpoint: mean survival time, dose: 50.0 mg/kg/injection, schedule: Q01DX001 (ip), vehicle: water) 88 % of control and 90 % of control; (endpoint: mean survival time, dose: 50.0 mg/kg/injection, schedule: Q01DX009 (ip), vehicle: other) 102 % of control and 88 % of control; (endpoint: mean survival time, dose: 100.0 mg/kg/injection, schedule: Q01DX001 (ip), vehicle: water) 95 % of control and 101 % of control. The T/C runs as follows: (endpoint: mean survival time, dose: 100.0 mg/kg/injection, schedule: Q01DX009 (ip), vehicle: other) 86 % of control and 97 % of control; (endpoint: mean survival time, dose: 200.0 mg/kg/injection, schedule: Q01DX001 (ip), vehicle: water) 90 % of control and 92 % of control; (endpoint: mean survival time, dose: 200.0 mg/kg/injection, schedule: Q01DX009 (ip), vehicle: other) 94 % of control; (endpoint: mean survival time, dose: 400.0 mg/kg/injection, schedule: Q01DX001 (ip), vehicle: water) 92 % of control.

Regarding `O=C(O)C1OC(C(=O)O)C(C(=O)O)C1C(=O)O` (stereo not given), the T/C reads like this: (endpoint: mean survival time, dose: 75.0 mg/kg/injection, schedule: Q01DX001 (ip), vehicle: other) 100 % of control; (endpoint: mean survival time, dose: 150.0 mg/kg/injection, schedule: Q01DX001 (ip), vehicle: other) 100 % of control; (endpoint: mean survival time, dose: 300.0 mg/kg/injection, schedule: Q01DX001 (ip), vehicle: other) 95 % of control.

Turning to `CC(C)=C(c1ccccc1)c1c(N)ncnc1Cl`, the T/C was 97 % of control (endpoint: mean survival time, dose: 100.0 mg/kg/injection, schedule: Q01DX001 (ip), vehicle: saline); 95 % of control (endpoint: mean survival time, dose: 200.0 mg/kg/injection, schedule: Q01DX001 (ip), vehicle: saline); 100 % of control (endpoint: mean survival time, dose: 400.0 mg/kg/injection, schedule: Q01DX001 (ip), vehicle: saline).

Regarding `O=C(Nc1ccccc1Cl)c1ccc([N+](=O)[O-])cc1`, the T/C was 94 % of control under setting [1]; 96 % of control under setting [2]; 97 % of control under setting [3]; 96 % of control under setting [4]; 97 % of control under setting [5]; 93 % of control under setting [6].
